Results published in patent US20250270209A1 (INTERLINE THERAPEUTICS, INC., priority 2022, published 2025).

Legend:
LRRK2 wild type enzyme = LRRK2 wild type enzyme (Homo sapiens, UniProt Q5S007); assay: Biochemical Assay: LRRK2 TR-FRET (LanthaScreen) kinase assay with LRRKtide substrate; conditions: LRRK2 Inhibition, Table 8
Outline: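 Human wild-type LRRK2 (3 nM) preincubated 15 min with compound (11-point, 3-fold, top 10 μM), then reacted 120 min at 23 °C with 400 nM LRRKtide and 25 μM ATP, pH 8.0. Stopped with EDTA; Tb-anti-pLRRKtide TR-FRET read after 30 min.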

[1] = molecular target: T1, wild type LRRK2 overexpressed in recombinant HEK-293T cells (Homo sapiens, UniProt Q5S007); assay: pS935 LRRK2 Cell Assay (HTRF, phospho-LRRK2 Ser935); assay type: cell-based; conditions: LRRK2 Inhibition, Table 8, 2 hours compound incubation
T1 construct: host or cells: HEK293T (transient transfection with pCMV-LRRK2 WT plasmid)
T1 sequence (Q5S007 whole entry): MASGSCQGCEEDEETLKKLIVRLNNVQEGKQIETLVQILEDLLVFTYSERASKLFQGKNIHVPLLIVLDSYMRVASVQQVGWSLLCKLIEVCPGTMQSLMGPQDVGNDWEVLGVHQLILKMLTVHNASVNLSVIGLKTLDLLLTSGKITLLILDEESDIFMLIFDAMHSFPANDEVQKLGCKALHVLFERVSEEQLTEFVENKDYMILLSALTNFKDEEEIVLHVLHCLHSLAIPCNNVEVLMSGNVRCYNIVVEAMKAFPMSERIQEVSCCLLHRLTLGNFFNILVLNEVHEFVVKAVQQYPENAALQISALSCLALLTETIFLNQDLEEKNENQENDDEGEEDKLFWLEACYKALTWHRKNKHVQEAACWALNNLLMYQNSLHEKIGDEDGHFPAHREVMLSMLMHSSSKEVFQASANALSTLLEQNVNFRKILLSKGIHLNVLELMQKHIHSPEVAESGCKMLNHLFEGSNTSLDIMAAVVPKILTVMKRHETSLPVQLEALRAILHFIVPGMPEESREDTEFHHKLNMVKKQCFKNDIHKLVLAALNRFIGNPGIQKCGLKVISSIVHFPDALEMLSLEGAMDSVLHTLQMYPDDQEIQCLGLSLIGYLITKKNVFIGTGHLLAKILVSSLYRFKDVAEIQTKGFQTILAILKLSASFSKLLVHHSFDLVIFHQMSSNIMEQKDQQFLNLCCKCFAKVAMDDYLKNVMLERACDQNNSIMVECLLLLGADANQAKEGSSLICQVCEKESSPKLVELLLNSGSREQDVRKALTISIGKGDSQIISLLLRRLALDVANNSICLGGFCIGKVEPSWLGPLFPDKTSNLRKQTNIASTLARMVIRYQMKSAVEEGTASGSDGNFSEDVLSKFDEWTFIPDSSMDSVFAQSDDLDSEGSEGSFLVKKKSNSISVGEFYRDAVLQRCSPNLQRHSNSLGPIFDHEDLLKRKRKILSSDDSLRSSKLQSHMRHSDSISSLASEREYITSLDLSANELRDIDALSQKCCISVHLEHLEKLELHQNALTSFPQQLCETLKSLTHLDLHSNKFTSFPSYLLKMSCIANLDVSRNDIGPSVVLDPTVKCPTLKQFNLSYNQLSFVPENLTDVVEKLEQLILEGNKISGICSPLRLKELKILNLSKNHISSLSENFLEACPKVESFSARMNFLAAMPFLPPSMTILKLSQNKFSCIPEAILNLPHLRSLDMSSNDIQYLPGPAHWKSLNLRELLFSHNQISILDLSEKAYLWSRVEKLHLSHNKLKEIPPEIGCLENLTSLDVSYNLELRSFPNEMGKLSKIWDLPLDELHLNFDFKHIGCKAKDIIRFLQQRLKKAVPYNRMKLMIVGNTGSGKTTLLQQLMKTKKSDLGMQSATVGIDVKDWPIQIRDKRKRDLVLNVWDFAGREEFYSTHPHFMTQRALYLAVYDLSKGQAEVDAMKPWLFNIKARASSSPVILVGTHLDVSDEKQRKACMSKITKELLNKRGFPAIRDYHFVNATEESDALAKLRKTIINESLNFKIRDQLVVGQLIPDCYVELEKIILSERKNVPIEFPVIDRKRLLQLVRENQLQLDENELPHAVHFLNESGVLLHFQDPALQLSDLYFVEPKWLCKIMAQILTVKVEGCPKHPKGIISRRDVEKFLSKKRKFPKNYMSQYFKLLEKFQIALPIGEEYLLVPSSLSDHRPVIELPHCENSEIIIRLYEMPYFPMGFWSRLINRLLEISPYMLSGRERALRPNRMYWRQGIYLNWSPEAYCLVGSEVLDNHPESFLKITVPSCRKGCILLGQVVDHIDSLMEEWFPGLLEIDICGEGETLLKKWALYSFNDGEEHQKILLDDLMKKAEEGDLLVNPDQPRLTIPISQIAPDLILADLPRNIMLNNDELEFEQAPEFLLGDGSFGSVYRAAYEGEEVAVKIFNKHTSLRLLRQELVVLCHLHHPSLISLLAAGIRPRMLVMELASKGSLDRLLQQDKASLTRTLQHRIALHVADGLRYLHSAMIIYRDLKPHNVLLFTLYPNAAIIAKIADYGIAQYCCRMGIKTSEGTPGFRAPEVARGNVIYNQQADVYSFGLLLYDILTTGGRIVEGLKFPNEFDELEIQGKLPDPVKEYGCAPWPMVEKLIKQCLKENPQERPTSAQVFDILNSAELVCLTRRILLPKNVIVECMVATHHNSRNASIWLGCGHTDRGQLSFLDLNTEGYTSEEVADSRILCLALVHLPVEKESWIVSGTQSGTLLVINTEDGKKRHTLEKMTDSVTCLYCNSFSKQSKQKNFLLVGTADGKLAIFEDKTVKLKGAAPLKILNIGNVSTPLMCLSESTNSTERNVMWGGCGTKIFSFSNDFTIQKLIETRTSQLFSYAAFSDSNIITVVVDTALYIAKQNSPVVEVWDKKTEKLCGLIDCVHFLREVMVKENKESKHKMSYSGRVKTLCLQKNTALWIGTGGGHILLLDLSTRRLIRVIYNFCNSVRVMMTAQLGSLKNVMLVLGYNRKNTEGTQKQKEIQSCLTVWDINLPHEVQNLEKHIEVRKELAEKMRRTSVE
Outline: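 HEK-293T cells transiently transfected with wild-type LRRK2 for 24 h, plated overnight, then treated 2 h at 37° C with compound (top 10 μM, 3-fold, 9 doses, duplicates, 0.2% DMSO). Lysates probed overnight at 23° C by sandwich HTRF for pSer935; 665/615 nm ratio read.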

LRRK2 wild type enzyme, sequence (Q5S007 whole entry): as above

| SMILES | IC50 (LRRK2 wild type enzyme) [nM] | IC50 [1] [nM] |
| --- | --- | --- |
| COc1nc(C2CC2)ncc1NC(=O)Cc1nc2cnc3ccc(C#N)cc3c2n1[C@@H]1CCO[C@H](C)C1 [Compound 255, N-(2-cyclopropyl-4-methoxy-5-pyrimidinyl){3-[(2R,4R)-2-methyltetrahydro-2H-pyran-4-yl]-12-cyano-3,5,8-triazatricyclo[7.4.0.0^2,6]trideca-1,4,6,8,10,12-hexaen-4-yl}acetamide] | 0.433 | 3.92 |
| Cc1ccnc(C)c1NC(=O)Cc1nc2cnc3ccc(C#N)cc3c2n1[C@@H]1CCO[C@H](C)C1 [Compound 256, N-(2,4-dimethyl-3-pyridyl){3-[(2R,4R)-2-methyltetrahydro-2H-pyran-4-yl]-12-cyano-3,5,8-triazatricyclo[7.4.0.0^2,6]trideca-1,4,6,8,10,12-hexaen-4-yl}acetamide] | 0.485 | 15.1 |
| Cc1nnc(CNC(=O)Cc2nc3cnc4ccc(C#N)cc4c3n2[C@@H]2CCO[C@H](C)C2)o1 [Compound 257, N-[(5-methyl-1,3,4-oxadiazol-2-yl)methyl]{3-[(2R,4R)-2-methyltetrahydro-2H-pyran-4-yl]-12-cyano-3,5,8-triazatricyclo[7.4.0.0^2,6]trideca-1(9),2(6),4,7,10,12-hexaen-4-yl}acetamide] | 0.451 | 97 |
| Cc1cnncc1NC(=O)Cc1nc2cnc3ccc(C#N)cc3c2n1[C@@H]1CCO[C@H](C)C1 [Compound 258, N-(5-methyl-4-pyridazinyl){3-[(2R,4R)-2-methyltetrahydro-2H-pyran-4-yl]-12-cyano-3,5,8-triazatricyclo[7.4.0.0^2,6]trideca-1,4,6,8,10,12-hexaen-4-yl}acetamide] | 0.521 | 17.2 |
| Cc1nc(CNC(=O)Cc2nc3cnc4ccc(C#N)cc4c3n2[C@@H]2CCO[C@H](C)C2)no1 [Compound 259, N-[(5-methyl-1,2,4-oxadiazol-3-yl)methyl]{3-[(2R,4R)-2-methyltetrahydro-2H-pyran-4-yl]-12-cyano-3,5,8-triazatricyclo[7.4.0.0^2,6]trideca-1(9),2(6),4,7,10,12-hexaen-4-yl}acetamide] | 1.34 | 132 |
| Cc1ncnc(C)c1NC(=O)Cc1nc2cnc3ccc(C#N)cc3c2n1[C@@H]1CCO[C@H](C)C1 [Compound 260, N-(4,6-dimethyl-5-pyrimidinyl){3-[(2R,4R)-2-methyltetrahydro-2pyran-4-yl]-12-cyano-3,5,8-triazatricyclo[7.4.0.0^2,6]trideca-1,4,6,8,10,12-hexaen-4-yl}acetamide] | 0.395 | 30.4 |
| Cc1ncc(NC(=O)Cc2nc3cnc4ccc(C#N)cc4c3n2[C@@H]2CCO[C@H](C)C2)c(C)n1 [Compound 261, N-(2,4-dimethyl-5-pyrimidinyl){3-[(2R,4R)-2-methyltetrahydro-2H-pyran-4-yl]-12-cyano-3,5,8-triazatricyclo[7.4.0.0^2,6]trideca-1,4,6,8,10,12-hexaen-4-yl}acetamide] | 0.512 | 10.4 |
| CCc1ncc(NC(=O)Cc2nc3cnc4ccc(C#N)cc4c3n2[C@@H]2CCO[C@H](C)C2)cn1 [Compound 262, N-(2-ethyl-5-pyrimidinyl){3-[(2R,4R)-2-methyltetrahydro-2H-pyran-4-yl]-12-cyano-3,5,8-triazatricyclo[7.4.0.0^2,6]trideca-1,4,6,8,10,12-hexaen-4-yl}acetamide] | 0.467 | 18.2 |
| C[C@@H]1C[C@H](n2c(CC(=O)Nc3cccn(C)c3=O)nc3cnc4ccc(C#N)cc4c32)CCO1 [Compound 263, N-(1-methyl-2-oxo-1,2-dihydro-3-pyridyl){3-[(2R,4R)-2-methyltetrahydro-2H-pyran-4-yl]-12-cyano-3,5,8-triazatricyclo[7.4.0.0^2,6]trideca-1,4,6,8,10,12-hexaen-4-yl}acetamide] | 0.476 | 8.93 |
| C[C@@H]1C[C@H](n2c(CC(=O)Nc3cnn(C)c(=O)c3)nc3cnc4ccc(C#N)cc4c32)CCO1 [Compound 264, N-(1-methyl-6-oxo-1,6-dihydro-4-pyridazinyl){3-[(2R,4R)-2-methyltetrahydro-2H-pyran-4-yl]-12-cyano-3,5,8-triazatricyclo[7.4.0.0^2,6]trideca-1,4,6,8,10,12-hexaen-4-yl}acetamide] | 0.486 | 74.4 |
| C[C@@H]1C[C@H](n2c(CC(=O)NCC3(C)CC3)nc3cnc4ccc(C#N)cc4c32)CCO1 [Compound 265, N-(1-methylcyclopropyl)methyl{3-[(2R,4R)-2-methyltetrahydro-2H-pyran-4-yl]-12-cyano-3,5,8-triazatricyclo[7.4.0.0^2,6]trideca-1,4,6,8,10,12-hexaen-4-yl}acetamide] | 0.548 | 22.4 |
| COCC(C)(C)CNC(=O)Cc1nc2cnc3ccc(C#N)cc3c2n1[C@@H]1CCO[C@H](C)C1 [Compound 266, N-(3-methoxy-2,2-dimethylpropyl){3-[(2R,4R)-2-methyltetrahydro-2H-pyran-4-yl]-12-cyano-3,5,8-triazatricyclo[7.4.0.0^2,6]trideca-1,4,6,8,10,12-hexaen-4-yl}acetamide] | 0.521 | 8 |
| COCC1(CNC(=O)Cc2nc3cnc4ccc(C#N)cc4c3n2[C@@H]2CCO[C@H](C)C2)CC1 [Compound 267, N-[1-(methoxymethyl)cyclopropyl]methyl{3-[(2R,4R)-2-methyltetrahydro-2H-pyran-4-yl]-12-cyano-3,5,8-triazatricyclo[7.4.0.0^2,6]trideca-1,4,6,8,10,12-hexaen-4-yl}acetamide] | 0.419 | 7.51 |
| C[C@@H]1C[C@H](n2c(CC(=O)Nc3ccnnc3)nc3cnc4ccc(C#N)cc4c32)CCO1 [Compound 268, N-4-pyridazinyl{3-[(2R,4R)-2-methyltetrahydro-2H-pyran-4-yl]-12-cyano-3,5,8-triazatricyclo[7.4.0.0^2,6]trideca-1,4,6,8,10,12-hexaen-4-yl}acetamide] | 0.461 | 109 |
| Cc1cncc(NC(=O)Cc2nc3cnc4ccc(C#N)cc4c3n2[C@@H]2CCO[C@H](C)C2)c1 [Compound 269, N-(5-methyl-3-pyridyl){3-[(2R,4R)-2-methyltetrahydro-2H-pyran-4-yl]-12-cyano-3,5,8-triazatricyclo[7.4.0.0^2,6]trideca-1,4,6,8,10,12-hexaen-4-yl}acetamide] | 0.379 | 5.17 |
| Cc1ccc(NC(=O)Cc2nc3cnc4ccc(C#N)cc4c3n2[C@@H]2CCO[C@H](C)C2)c(C)n1 [Compound 270, N-(2,6-dimethyl-3-pyridyl){3-[(2R,4R)-2-methyltetrahydro-2H-pyran-4-yl]-12-cyano-3,5,8-triazatricyclo[7.4.0.0^2,6]trideca-1,4,6,8,10,12-hexaen-4-yl}acetamide] | 0.504 | 7.36 |
| C[C@@H]1C[C@H](n2c(CC(=O)Nc3cnccc3C#N)nc3cnc4ccc(C#N)cc4c32)CCO1 [Compound 271, N-(4-cyano-3-pyridyl){3-[(2R,4R)-2-methyltetrahydro-2H-pyran-4-yl]-12-cyano-3,5,8-triazatricyclo[7.4.0.0^2,6]trideca-1,4,6,8,10,12-hexaen-4-yl}acetamide] | 0.643 | 8.43 |
